Reference: US20090246212A1, “DEVELOPMENT OF METHOD FOR SCREENING FOR DRUG CAPABLE OF IMPROVING PRODUCTION OF REGULATORY T CELLS AND METHOD FOR PRODUCING REGULATORY T CELLS USING IMMUNOSUPPRESSIVE MACROLIDE ANTIBIOTIC” (KYOTO UNIVERSITY, priority 2005, published 2009)

Assays:
[1] = tested on: CD45RA^+CD25^+CD4^+ T cells; test: FACS phenotype analysis of the T cell line from CD45RA^+CD25^+CD4^+ T cells cultured with rapamycin; format: cell-based, human
Experimental: PBMC derived from the subjects, or expanded T cell line were incubated with various antibodies for 30 min at 4° C. in the dark, washed, and analyzed using a BD FACSAria cell sorter and a FACSDiVA software (Becton Dickinson). The antibodies used were perCP-conjugated anti-CD4 mAb, biotin-conjugated anti-CD25 mAb, FITC-conjugated anti-CD45RA mAb, PE-conjugated anti-CD45RB mAb, anti-CD45RO mAb, anti-CD62L mAb, anti-CD38 mAb, anti-GITR mAb, and anti-TNFRII mAb. For intracellular staining with CTLA-4, the cells were subjected to cell surface staining, fixation, and permeabilization with Cytofix/Cytoperm solution (Becton Dickinson), and then intracellularly stained with PE-conjugated anti-CTLA-4.
CD45RA^+CD25^+CD4^+ T cells or CD45RA^+CD25^−CD4^+ T cells in human peripheral blood separated in the same manner as Example 1 (5×10̂4 cells/well) were stimulated with anti-human CD3 and CD28 conjugate beads in a ratio of 4 beads per cell in a 96-well round-bottomed culture plate containing 200 μl per well of a proliferation medium (AlyS505N (produced by Cell Science & Technology Institute) supplemented with 2% human AB serum) in the presence of human IL-2 (1000 U/ml, produced by Cell Science & Technology Institute). Rapamycin (20 nM, produced by Sigma) was added to the medium 0 or 40 days after the start of cultivation. Every 3 to 4 days, half of the medium was replaced with a fresh proliferation medium containing IL-2. If necessary, the cells were separated and repeatedly re-stimulated with anti-CD3/CD28 antibody conjugate beads every 10 to 14 days. Fifty days after the start of cultivation, the cells were collected and used for FACS analysis.
Expanded T cell lines were incubated with various antibodies for 30 minutes at 4° C. in the dark, washed, and analyzed using BD FACSAria cell sorter and FACSDiVA software (Becton Dickinson). The antibodies and staining conditions used were the same as Example 1.

[2] = tested on: CD45RA^+CD25^−CD4^+ T cells; test: Expansion culture of CD45RA^+CD25^−CD4^+ T cells with anti-CD3/CD28 beads and IL-2, rapamycin added; format: cell-based, human
Experimental: Venous blood was obtained from healthy volunteers (human). Peripheral blood mononuclear cell (PBMC) was isolated by Ficoll-Hypaque (Amersham Biosciences-Uppsala) density gradient centrifugation. The cells were stained with allophycocyanin (APC)-conjugated anti-CD4 monoclonal antibody (mAb), phycoerythrin (PE)-conjugated anti-CD25 mAb, and fluorescein isothiocyanate (FITC)-conjugated anti-CD45RA mAb for 30 min at 4° C. in the dark, after which the following six different cell fractions were isolated using a BD FACSAria cell sorter (Becton Dickinson)(see FIG. 1A).
(§1) CD45RA^+CD25^+CD4^+ T cells or CD45RA^+CD25^−CD4^+ T cells (5×10̂4 cells/well) separated as described above were stimulated with anti-human CD3 and CD28 conjugate beads in a ratio of 4 beads per cell in a 96-well round-bottomed culture plate containing 200 μl per well of a proliferation medium (AlyS505N (produced by Cell Science & Technology Institute) supplemented with 2% human AB serum) in the presence of human IL-2 (1000 U/ml, produced by Cell Science & Technology Institute). Rapamycin (20 nM, produced by Sigma) was added as appropriate. Every 3 to 4 days, half of the medium was replaced with a fresh proliferation medium containing IL-2. If necessary, the cells were separated and repeatedly re-stimulated with anti-CD3/CD28 antibody conjugated beads every 10 to 14 days. Two days before functional assay, the anti-CD3/CD28 antibody conjugated beads were removed magnetically, and the cells were cultured along with 100 U/ml IL-2 in the absence of rapamycin. After 3 times of washing, the cells were used for functional assay.

[3] = tested on: IgE-like antibody; conditions: in vivo; cited from earlier work
[4] = tested on: Candida albicans; conditions: both in vitro and in vivo, particularly against Candida albicans; cited from earlier work
[5] = tested on: CD45RA^+CD25^−CD4^+ T cell line; test: Suppression assay ([^3H] thymidine uptake) of the rapamycin-cultured CD45RA^+CD25^−CD4^+ T cell line; format: cell-based, human; conditions: then 2 days without rapamycin
Experimental: as §1, with “Two days before functional assay, the anti-CD3/CD28 antibody conjugated beads were removed magnetically, and the cells were cultured along with 100 U/ml IL-2 in the absence of rapamycin. After 3 times of washing, the cells were used for functional assay.” left out
The indicated number of CD45RA^+CD25^+CD4^+ T cells just isolated from human peripheral blood, expanded CD45RA^+CD25^+CD4^+ T cell lines, or expanded CD45RA^+CD25^−CD4^+ T cell line, alone or along with self responder CD4^+ T cells (5×10̂4 cells/well), were stimulated with radiated (40 Gy) allogenic PBMC (1×10̂5 cells/well) in a round-bottomed 96-well microplate containing a proliferation medium. […] Subsequently, the cells were recovered, and [^3H] thymidine uptake was measured using 1450 Microbeta TriLux (Wallac).

[6] = rapamycin 20 nM from day 40, collected day 50

With `CO[C@H]1C[C@@H]2CC[C@@H](C)[C@@](O)(O2)C(=O)C(=O)N2CCCC[C@H]2C(=O)O[C@H]([C@H](C)C[C@@H]2CC[C@@H](O)[C@H](OC)C2)CC(=O)[C@H](C)/C=C(\C)[C@@H](O)[C@@H](OC)C(=O)[C@H](C)C[C@H](C)/C=C/C=C/C=C/1C` [rapamycin] the “CD45RO phenotype of the T cell line” value ([1]; rapamycin 20 nM from day 0, collected day 50) was “negative”, the “CD25 expression relative to CD45RA^−CD25^high+CD4^+ T cells in peripheral blood” value [1, 6] was “about 0.8 times” and the “CD45RA expression relative to CD45RA^+CD25^+CD4^+ T cells in peripheral blood” value [1, 6] was “about ⅙”. For the same compound, the “CD45RB expression relative to CD45RA^−CD25^high+CD4^+ T cells in peripheral blood” value [1, 6] was “about 4 times”, the “CD45RO expression relative to CD45RA^−CD25^high+CD4^+ T cells in peripheral blood” value [1, 6] was “about 1/50” and the “CD62L expression relative to CD45RA^−CD25^high+CD4^+ T cells in peripheral blood” value [1, 6] was “about ⅙”. The “GITR / CTLA4 phenotype of the T cell line” value [1, 6] was “GITR^+CTLA4^+”, the “influence on the proliferation of the T cell line” value ([2]; rapamycin 20 nM added 19 days after start of cultivation) was “almost no influence” and the “proliferation of CD45RA^+CD25^−CD4^+ T cells” value ([2]; rapamycin 20 nM from the start of cultivation, compared with cultivation in the absence of rapamycin) was “slightly suppressed”. For the same compound, the “increase of cell number in the culture product” value ([2]; rapamycin 20 nM from the start of cultivation, about 35 days after start) was “about 700 times”, the “formation of IgE-like antibody” value [3] was “effectively inhibited” and the antifungal activity [4] was “possess antifungal activity”. The “T cell line's effect on proliferation of CD4^+ T cells in response to alloantigen-presenting cells” value ([5]; rapamycin added day 19, about 35 days after start) was “strongly suppressed” and the “T cell line's effect on proliferation of CD4^+ T cells in response to alloantigen-presenting cells” value ([5]; rapamycin from day 0, about 35 days culture) was “strongly suppressed”.
